This is an account of results in US4859186A, “Pulpotomy agent and method of use” (priority 1988, dated 1989).

For data set [1], the target named is bovine serum albumin (BSA) in collagen-BSA gel wafers (Bos taurus, UniProt P02769). Description: Collagen-BSA gel wafer assay: BSA diffusing from gel after fixation. As to conditions: for % of control retained (diluted 10 fold) / % change relative to fresh glutaraldehyde / % of control retained / % change relative to freshly prepared 4% glutaraldehyde: diluted 10 fold. From the text: (§1) Two assays were used to evaluate the effectiveness of the composition of the present invention as a pulpotomy agent. The first was based on the diffusion of bovine serum albumin (BSA) from collagen-BSA gel wafers following fixation. That methodology was based on the method described in Flitney, F. W., "The time course of the fixation of albumin by formaldehyde, glutaraldehyde, acrolein and other higher aldehydes," 85 J. Royal Microscop. […] 353 (1966)). The collagen-BSA gel was formulated by Flitney to simulate the cytoplasm of the cell. Diffusion of BSA from the gel was intended to provide a reproducible model by which the relative change in the rate of leakage of protein through the cell membrane could be monitored during fixation with different techniques. This procedure was also modified as described in Example III to allow the evaluation of the depth of penetration of the composition of the present invention into adjoining cells of the pulpal tissue. The second assay was the determination of residual lactate dehydrogenase activity (LDH) in bovine pulp following treatment with the composition of the present invention.
Sequence of bovine serum albumin (BSA) in collagen-BSA gel wafers (P02769 25-607): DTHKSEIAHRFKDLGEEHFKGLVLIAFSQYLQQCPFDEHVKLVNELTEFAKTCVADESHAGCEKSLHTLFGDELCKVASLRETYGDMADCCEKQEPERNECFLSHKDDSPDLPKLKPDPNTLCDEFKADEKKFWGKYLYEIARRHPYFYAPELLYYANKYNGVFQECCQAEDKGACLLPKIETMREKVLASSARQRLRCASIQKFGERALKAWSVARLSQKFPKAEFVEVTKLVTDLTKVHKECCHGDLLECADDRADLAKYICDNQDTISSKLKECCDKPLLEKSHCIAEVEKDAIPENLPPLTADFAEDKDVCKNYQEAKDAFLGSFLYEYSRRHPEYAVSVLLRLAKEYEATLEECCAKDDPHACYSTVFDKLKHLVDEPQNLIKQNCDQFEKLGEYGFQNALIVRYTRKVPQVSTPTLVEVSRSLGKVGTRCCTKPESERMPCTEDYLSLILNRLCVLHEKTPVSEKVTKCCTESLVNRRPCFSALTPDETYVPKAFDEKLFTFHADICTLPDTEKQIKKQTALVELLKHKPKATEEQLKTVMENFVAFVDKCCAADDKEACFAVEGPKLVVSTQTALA
The effectiveness of the fixative ability of the pulpotomy agent of the present invention was assayed according to the method set out in Flitney, supra. Briefly, that method is as follows. Collagen gels (0.3 g/2.8 ml) were prepared containing a physiological salt solution and bovine serum albumin (1 g BSA/10 ml). The mixture was dissolved in a boiling water bath and measured amounts were pipetted into plastic vials. Collagen-BSA wafers were removed from the vials and incubated in a buffered glutaraldehyde solution and the 4% glutaraldehyde-containing pulpotomy agent prepared as described in Example I, above, for 4 minutes. Wafers treated with distilled water or sodium phosphate buffer for identical time periods were used as respective controls. Following incubation, relative fixation of protein in the gels was ascertained by measuring the amount of BSA which diffuses from the gels into 4 ml of water during a 30 minute period. BSA was quantified by the method described by Bradford, M. M., "A rapid and sensitive method for quantification of microgram quantities of protein utilizing the principles of protein dye binding," 72 Anal. Biochem. 248 (1976).
The quantity of BSA which diffused from each gel is reported below as a percentage of control lost or retained.

Data set [2] addresses bovine serum albumin (BSA) in collagen-BSA gels (Bos taurus, UniProt P02769). The data set can be described thus: Penetration (depth of fixation) assay: collagen-BSA gels submerged intact in vials.
Description: as §1

Data set [3] deals with lactate dehydrogenase (LDH) in bovine pulp. The data set can be described thus: Residual LDH activity in calf pulp after treatment. The data set is classed as biochemical.
Description: as §1
The effectiveness of the pulpotomy agent prepared as described in Example I, above, was also evaluated by an assay for residual LDH Activity. In this assay, calf pulp was harvested from freshly extracted molars, minced into pieces of approximately 1 mm^3, divided into aliquots weighing approximately 0.5 g, and stored at -20° C. until used. After thawing each aliquot was wet weighed and incubated in the 4% glutaraldehyde-containing pulpotomy agent prepared as described in Example I for 4 minutes. The treated sample was homogenized for one minute in ten ml of 0.2M Tris, pH 7.3, using a homogenizer. Following centrifugation for ten minutes at 300 rpm on a clinical centrifuge, the supernatant was decanted. One hundred microliters of the supernatant was added to a cuvette containing 2.8 ml Tris HCl, 1.0 ml of […], and 0.1 ml of 30 mM sodium pyruvate and vortexed for 10 seconds. The change in absorbence per minute was recorded on a spectrophotometer at 345 nm at room temperature. The activities were calculated as units/g wet weight/min, and the mean was calculated for five samples in each group. The values are reported as a percentage of controls and statistics were the same as described in Example II, above.

The mark [4] stands for this setting: stored at room temperature (25° C.) for eight months.

Sequence of bovine serum albumin (BSA) in collagen-BSA gels (P02769 25-607): as above

Consider `O=CCCCC=O` [4% Glutaraldehyde, glutaraldehyde], for which the “% of control retained (diluted 10 fold)” value in data set [1] (Fresh, mean of four samples) is 80%; in data set [1] (stored at room temperature for nine months), 72%; in data set [1] (stored in the cold for nine months), 72%. Besides, the “% of control gel retained” value in data set [1] (Fresh, heat assay, mean of four samples) is 80%; in data set [1] (Heated: storage at 37° C. for three months), 53%. Further, the “% of control retained (undiluted solutions)” value was determined as 85% in data set [1] (Fresh, mean of six samples); 85% in data set [1] (setting [4]); 85% in data set [1] (stored cold (5° C.) for eight months). In addition, the entries for the “% change relative to fresh glutaraldehyde” value in data set [1] (Heated at 37° C. for 3 Months) and in data set [1] (Stored at 25° C. for 3 Months) were -34% and -21%, respectively. Moreover, the “% of control retained” value in data set [1] (Heated at 37° C. for 3 Months) amounted to 53%; in data set [1] (Stored at 25° C. for 3 Months), 63%; in data set [1] (made up fresh, mean of four samples), 80%. The “% change relative to freshly prepared 4% glutaraldehyde” value is listed as -8% in data set [1] (cold nine months) and -11% in data set [1] (room temperature nine months). Moreover, the “% of control retained (BSA in gel)” value in data set [1] (wafers incubated 4 minutes, BSA diffusing into 4 ml water during 30 minutes, five samples) worked out at 78%. In addition, in data set [2] (2, 4, and 8 percent solutions, FIG. 2), the “secondary diffusion of BSA (depth of penetration)” value was “decreased by approximately the same amount”. Also, the “% of control retained (BSA in gel, penetration)” value in data set [2] (vials with gels intact submerged 4 minutes, five samples) worked out at 27%. The “% of control retained (LDH activity)” value in data set [3] (Fresh, mean of 5 samples) was found to be 6%; in data set [3] (setting [4]), 3%; in data set [3] (stored in the cold (5° C.) for eight months) it was 4%. Also, the “% of control retained (residual LDH activity)” value in data set [3] (calf pulp incubated 4 minutes, five samples) is 3.0%. In addition, the “LDH inhibition versus concentration” value in data set [3] (different concentrations for any treatment time, FIG. 3) is reported as “log-dose response”.
